Laboratory results published in publication PMC7708056 (2020).

What was measured:
[1] = system: 18GAAA-D1 (NAD+ riboswitch domain 1, WT) (RNA, riboswitch) GGCUUCAACAACCCCGUAGGUGGGGACGAAAGUCAGCGCACCUACUGGAGCC; test: ITC; conditions: 50 mM NaCl, 10 mM MgCl2; for Kd: 50 mM HEPES pH 7.0, 25 °C (Figure S7 legend: 20 °C), apparent
[2] = system: 18GAAA-D1 C13G/G38C (RNA, riboswitch) GGCUUCAACAACGCCGUAGGUGGGGACGAAAGUCAGCCCACCUACUGGAGCC; test: ITC; conditions: 50 mM NaCl, 10 mM MgCl2; 50 mM HEPES pH 7.0, 25 °C; 2 mM ligand stock titrated into 0.1 mM RNA
[3] = system: 18GAAA-D1 C6U/G47A (RNA, riboswitch) GGCUUUAACAACCCCGUAGGUGGGGACGAAAGUCAGCGCACCUACUAGAGCC; test: ITC; conditions: 50 mM NaCl, 10 mM MgCl2; 50 mM HEPES pH 7.0, 25 °C; 2 mM ligand stock titrated into 0.1 mM RNA
[4] = system: 18GAAA-D1 C14G/G36C (RNA, riboswitch) GGCUUCAACAACCGCGUAGGUGGGGACGAAAGUCACCGCACCUACUGGAGCC; test: ITC; conditions: 50 mM NaCl, 10 mM MgCl2; 50 mM HEPES pH 7.0, 25 °C; 2 mM ligand stock titrated into 0.1 mM RNA
[5] = system: 17delU1A-D1 (NAD+ riboswitch domain 1) (RNA, riboswitch) GGCGCAACAUCCCCGCCGGUUGGGCGCAUUGCACUCCGCGCAGUGAACCGGCUGCGCC; test: X-ray crystallography, 2.80 Å; conditions: Mg2+; co-crystallised with U1A protein
[6] = system: C13U/C14U/G36A/G38A domain 1, Ap variant (RNA, riboswitch, 2-aminopurine (position not given)) GGCUUCAACAACUUCGUAGGUGGGGACGAAAGUCAACACACCUACUGGAGCC; test: 2-aminopurine fluorescence
[7] = system: 18GAAA-D1 G38C (RNA, riboswitch) GGCUUCAACAACCCCGUAGGUGGGGACGAAAGUCAGCCCACCUACUGGAGCC; test: ITC; conditions: 50 mM NaCl, 10 mM MgCl2; 50 mM HEPES pH 7.0, 25 °C; 2 mM ligand stock titrated into 0.1 mM RNA
[8] = system: 18GAAA-D1 G36C/G38C (RNA, riboswitch) GGCUUCAACAACCCCGUAGGUGGGGACGAAAGUCACCCCACCUACUGGAGCC; test: ITC; conditions: 50 mM NaCl, 10 mM MgCl2; 50 mM HEPES pH 7.0, 25 °C; 2 mM ligand stock titrated into 0.1 mM RNA
[9] = system: 18GAAA-D1 C6G/G47C (RNA, riboswitch) GGCUUGAACAACCCCGUAGGUGGGGACGAAAGUCAGCGCACCUACUCGAGCC; test: ITC; conditions: 50 mM NaCl, 10 mM MgCl2; 50 mM HEPES pH 7.0, 25 °C; 2 mM ligand stock titrated into 0.1 mM RNA
[10] = system: G36A/G38A/A11Ap domain 1 (RNA, riboswitch, 2-aminopurine at 11) GGCUUCAACAACCCCGUAGGUGGGGACGAAAGUCAACACACCUACUGGAGCC; test: 2-aminopurine fluorescence
[11] = system: 18GAAA-D1 A10C (RNA, riboswitch) GGCUUCAACCACCCCGUAGGUGGGGACGAAAGUCAGCGCACCUACUGGAGCC; test: ITC; conditions: 50 mM NaCl, 10 mM MgCl2; 50 mM HEPES pH 7.0, 25 °C; 2 mM ligand stock titrated into 0.1 mM RNA
[12] = system: 18GAAA-D1 A35C (RNA, riboswitch) GGCUUCAACAACCCCGUAGGUGGGGACGAAAGUCCGCGCACCUACUGGAGCC; test: ITC; conditions: 50 mM NaCl, 10 mM MgCl2; 50 mM HEPES pH 7.0, 25 °C; 2 mM ligand stock titrated into 0.1 mM RNA
[13] = system: 18GAAA-D1 G36C (RNA, riboswitch) GGCUUCAACAACCCCGUAGGUGGGGACGAAAGUCACCGCACCUACUGGAGCC; test: ITC; conditions: 50 mM NaCl, 10 mM MgCl2; 50 mM HEPES pH 7.0, 25 °C; 2 mM ligand stock titrated into 0.1 mM RNA
[14] = system: 18GAAA-D1 C13U/C14U/G36A/G38A (RNA, riboswitch) GGCUUCAACAACUUCGUAGGUGGGGACGAAAGUCAACACACCUACUGGAGCC; test: ITC; conditions: 50 mM NaCl, 10 mM MgCl2; 50 mM HEPES pH 7.0, 25 °C; 2 mM ligand stock titrated into 0.1 mM RNA
[15] = system: 18GAAA-D1 A8G (RNA, riboswitch) GGCUUCAGCAACCCCGUAGGUGGGGACGAAAGUCAGCGCACCUACUGGAGCC; test: ITC; conditions: 50 mM NaCl, 10 mM MgCl2; 50 mM HEPES pH 7.0, 25 °C; 2 mM ligand stock titrated into 0.1 mM RNA
[16] = system: 832GAAA-D2 (NAD+ riboswitch domain 2) (RNA, riboswitch) GGUUUCAACAUCCCCGUUCGGCGCUCGAAAGAGGUGGCCGGACUGAAGCC; test: X-ray crystallography, 2.1 Å; conditions: Mg2+
[17] = system: A11Ap domain 1 (RNA, riboswitch, 2-aminopurine at 11) GGCUUCAACAACCCCGUAGGUGGGGACGAAAGUCAGCGCACCUACUGGAGCC; test: 2-aminopurine fluorescence, real time; conditions: 100 mM KCl, 50 mM MgCl2; 50 mM KMOPS pH 7.5, 20 °C, 0.5 μM RNA, 0.3 mM ligand
[18] = system: 18GAAA-D1 A8U (RNA, riboswitch) GGCUUCAUCAACCCCGUAGGUGGGGACGAAAGUCAGCGCACCUACUGGAGCC; test: ITC; conditions: 50 mM NaCl, 10 mM MgCl2; 50 mM HEPES pH 7.0, 25 °C; 2 mM ligand stock titrated into 0.1 mM RNA
[19] = system: 18GAAA-D1 A10G (RNA, riboswitch) GGCUUCAACGACCCCGUAGGUGGGGACGAAAGUCAGCGCACCUACUGGAGCC; test: ITC; conditions: 50 mM NaCl, 10 mM MgCl2; 50 mM HEPES pH 7.0, 25 °C; 2 mM ligand stock titrated into 0.1 mM RNA
[20] = system: 18GAAA-D1 G23A/C37U (RNA, riboswitch) GGCUUCAACAACCCCGUAGGUGAGGACGAAAGUCAGUGCACCUACUGGAGCC; test: ITC; conditions: 50 mM NaCl, 10 mM MgCl2; 50 mM HEPES pH 7.0, 25 °C; 2 mM ligand stock titrated into 0.1 mM RNA
[21] = system: 18GAAA-D1 A11U (RNA, riboswitch) GGCUUCAACAUCCCCGUAGGUGGGGACGAAAGUCAGCGCACCUACUGGAGCC; test: ITC; conditions: 50 mM NaCl, 10 mM MgCl2; 50 mM HEPES pH 7.0, 25 °C (Figure S7 legend: 20 °C), apparent
[22] = system: U11Ap domain 2 (RNA, riboswitch, 2-aminopurine at 11) GGUUUCAACAUCCCCGUUCGGCGCUCGAAAGAGGUGGCCGGACUGAAGCC; test: 2-aminopurine fluorescence titration; conditions: 100 mM KCl, 50 mM MgCl2; 50 mM KMOPS pH 7.5, 20 °C, 0.5 μM RNA, apparent
[23] = system: A11Ap domain 1 (RNA, riboswitch, 2-aminopurine at 11) GGCUUCAACAACCCCGUAGGUGGGGACGAAAGUCAGCGCACCUACUGGAGCC; test: 2-aminopurine fluorescence titration; conditions: 100 mM KCl, 50 mM MgCl2; 50 mM KMOPS pH 7.5, 20 °C, 0.5 μM RNA, apparent

Which Kd [1] does the source give for NC(=O)C1=CN([C@@H]2O[C@H](COP(=O)(O)OP(=O)(O)OC[C@H]3O[C@@H](n4cnc5c(N)ncnc54)[C@H](O)[C@@H]3O)[C@@H](O)[C@H]2O)C=CC1 here?
Its Kd is 305 ± 46.4 µM.

Which results are given for NC(=O)c1ccc[n+]([C@@H]2O[C@H](COP(=O)(O)OP(=O)(O)OC[C@H]3O[C@@H](n4cnc5c(N)ncnc54)[C@H](O)[C@@H]3O)[C@@H](O)[C@H]2O)c1?
binding [2]: no; binding [3]: no; binding [4]: no; binding [5]: yes; binding [6]: no; binding [7]: no; binding [8]: no; binding [9]: no; binding [10]: yes; binding [11]: no; binding [12]: no; binding [13]: no; binding [14]: no; binding [15]: no; binding [16]: yes; binding [17]: yes; binding [18]: no; binding [19]: no; binding [20]: no; Kd [21]: 111 ± 24.6 µM; Kd [1]: 127 ± 9.5 µM

Which binding ([1]; 50 mM HEPES pH 7.0, 25 °C, 2 mM ligand stock titrated into 0.1 mM RNA) does the source give for NC(=O)c1ccc[n+]([C@@H]2O[C@H](COP(=O)([O-])O)[C@@H](O)[C@H]2O)c1 here?
Its binding is “no”.

Which results are given for Nc1ncnc2c1ncn2[C@@H]1O[C@H](COP(=O)(O)OP(=O)(O)O)[C@@H](O)[C@H]1O?
KD^ADP [22]: 3400 ± 500 µM; KD^ADP [23]: 94 ± 3 µM; binding [10]: yes; Kd [1]: 95.3 ± 0.3 µM

How did the Kd [1] turn out when Nc1ncnc2c1ncn2[C@@H]1O[C@H](COP(=O)(O)OP(=O)(O)OP(=O)(O)O)[C@@H](O)[C@H]1O was run?
The Kd was 90.2 ± 8.6 µM.
